From PubChem BioAssay AID2060894 (Molecular Pharmacology Branch, DTP, NCI, 2025)

System: K12877-001-R-J1-PDC complex spheroid viability
Test: Anticancer human tumor K12877-001-R-J1-PDC patient-derived lung adenocarcinoma cell line growth inhibition [RAS]
Conditions: for IC50: curve of first compound; for viability, T/C: stronger effect = lower value
Excerpt: RAS pathway inhibitors in Combinations in Complex Spheroids
A high-throughput screen of multi-cell type tumor spheroids was designed to identify active combinations of RAS pathway inhibitors and targeted small molecules. Complex spheroids include a stromal component modeled by human endothelial cells (HUVEC) and fibroblasts modeled by human mesenchymal stem cells (MSCs). The concentration ranges selected for each drug and investigational agent were based upon clinically achievable concentrations if the clinical Cmax of the agent was known.
Compounds. The drugs and investigational agents: abemaciclib (NSC768073), cobimetinib (NSC768068), divarasib (GDC6063, NSC841802), docetaxel (NSC628503), GDC-1971 (RLY-1971, NSC841576), gemcitabine (NSC613327), inavolisib (NSC800729), ipatasertib (NSC767898), KB-0742 (NSC834161), MRTX-1133 (NSC836407), osimertinib (NSC779217), RMC-4630 (NSC839698), RMC-6236 (NSC851965), RMC-6291 (NSC852671), Ro-3306 (NSC812927), sapanisertib (NSC764658), SN-38 (NSC673596), staurosporine (NSC755774), SY5609 (NSC837396), and tovorafenib (DAY101, NSC766906), were obtained from the National Cancer Institute (NCI) Developmental Therapeutics Program Chemical Repository. The FDA-approved anticancer drug set is available from the NCI Developmental Therapeutics Program. […] The stock solutions were prepared in dimethyl sulfoxide (DMSO, Sigma-Aldrich, St. Louis, MO, cat. D2650) at 800-fold the tested concentration and stored at -70 degrees C prior to their use. All drugs and investigational agents were tested over a range starting from a high concentration at or near the clinical Cmax and decreasing in half-log increments. If the clinical Cmax for an agent had not been determined, the highest concentration tested was 10 microM.
Cell Culture. All cells were maintained in an incubator at 37 degrees C and 5% CO2 with 95% humidity. The PDC lines were cultured according to standard operating procedures established by the NCI PDMR. All PDCs were thawed and cultured in Matrigel-coated flasks prepared with a working solution of 1X Ham's F-12 nutrient mix, without supplementation (Invitrogen, Waltham, MA, cat. 11765054), 100 U/mL penicillin-streptomycin (Invitrogen, cat. 15140122), and 2.5% Matrigel (Corning Inc., Corning, NY, cat. 354248) for the first three passages. The 362531-283-R-J2-PDC and 782815-120-R-J1-PDC lines were cultured in 6C/Colon 1B media, which includes advanced DMEM/F-12 (Thermo Fisher Scientific, cat. 12634028), 10 mM HEPES (Thermo Fisher Scientific, cat. 15630080), 1X GlutaMAX supplement (Thermo Fisher Scientific, cat. 35050061), 0.1 mg/mL primocin (InvivoGen, San Diego, CA, cat. ant-pm-2), 10% defined fetal bovine serum, heat inactivated (HyClone Laboratories Inc., Logan, UT, cat. SH30070.03HI), 50% L-WRN conditioned media (ATCC, cat. CRL-3276), 1.25 mM N-Acetyl-L-cysteine (Sigma-Aldrich, cat. A9165), 10 mM nicotinamide (Sigma-Aldrich, cat. N0636), 1X B-27 supplement (Thermo Fisher Scientific, cat. 17504044), 1X N-2 supplement (Thermo Fisher Scientific, cat. 17502048), 50 ng/mL human EGF (Thermo Fisher Scientific, cat. PHG0311), and 10 microM Y-27632 dihydrochloride (Tocris Bioscience, cat. 1254). The K12877-001-R-J1-PDC line was cultured in 6I media, which includes all 6C/Colon 1B media plus 10 ng/mL human FGF-10 (PeproTech, cat. 100-26), 1 ng/mL human FGF-2 (PeproTech, cat. 100-18B), 1 µM prostaglandin E2 (Tocris Bioscience, cat. 2296), […] hydrocortisone (Sigma-Aldrich, cat. H4001), and […] bovine insulin (Sigma-Aldrich, cat. I6634). The K86415-001-R-J1-PDC line was cultured in 6D media, which includes all 6C/Colon 1B media components minus the L-WRN conditioned media. The 485176-168-R4-J1-PDC was cultured in PANC media, which includes all 6C/Colon 1B media plus 100 ng/mL human FGF-10 (PeproTech, cat. 100-26), 500 nM SB-431542 (Selleckchem, cat. S1067), and 10 nM gastrin (Tocris Bioscience, cat. 3006). […]
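Note: spheroids exposed to agents for one week before readout.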

Q: Cc1nc(N2CCC3(CC2)COC(C)C3N)c(CO)nc1Sc1ccnc(N)c1Cl (configuration not stated) + CCn1c(-c2cccnc2C(C)OC)c2c3cc(ccc31)N1CCOC(CC(NC(=O)C(C(C)C)N(C)C(=O)C3(F)CCN(C(=O)C#CC(C)(C)N(C)C)CC3)C(=O)N3CCCC(N3)C(=O)OCC(C)(C)C2)C1 was tested. Which IC50 (second compound 0.000949 µM) did it give?
A: 6230 nM

Q: And the IC50 (second compound 0.003 µM)?
A: 1850 nM

Q: And the IC50 (second compound 0.00949 µM)?
A: 2630 nM

Q: And the IC50 (second compound 0.03 µM)?
A: 875 nM

Q: And the IC50 (second compound 0.0949 µM)?
A: 1200 nM

Q: And the IC50 (second compound 0.3 µM)?
A: 424 nM

Q: And the viability, T/C (second compound 0.000949 µM, first compound 0.0316 µM)?
A: 83.6%

Q: And the viability, T/C (second compound 0.000949 µM, first compound 0.1 µM)?
A: 71.1%

Q: What about the viability, T/C (second compound 0.000949 µM, first compound 0.316 µM) of the same compound?
A: 71.5%

Q: And the viability, T/C (second compound 0.000949 µM, first compound 1 µM)?
A: 62.5%

Q: And the viability, T/C (second compound 0.000949 µM, first compound 3.16 µM)?
A: 52.8%

Q: What about the viability, T/C (second compound 0.000949 µM, first compound 10 µM) of the same compound?
A: 47.3%

Q: And the viability, T/C (second compound 0.003 µM, first compound 0.0316 µM)?
A: 73.6%

Q: And the viability, T/C (second compound 0.003 µM, first compound 0.1 µM)?
A: 66.2%

Q: And the viability, T/C (second compound 0.003 µM, first compound 0.316 µM)?
A: 69.8%

Q: What about the viability, T/C (second compound 0.003 µM, first compound 1 µM) of the same compound?
A: 55.6%

Q: What about the viability, T/C (second compound 0.003 µM, first compound 3.16 µM) of the same compound?
A: 45.6%

Q: What about the viability, T/C (second compound 0.003 µM, first compound 10 µM) of the same compound?
A: 44%

Q: What about the viability, T/C (second compound 0.00949 µM, first compound 0.0316 µM) of the same compound?
A: 76.4%

Q: And the viability, T/C (second compound 0.00949 µM, first compound 0.1 µM)?
A: 76%

Q: And the viability, T/C (second compound 0.00949 µM, first compound 0.316 µM)?
A: 57.8%

Q: What about the viability, T/C (second compound 0.00949 µM, first compound 1 µM) of the same compound?
A: 57.4%

Q: What about the viability, T/C (second compound 0.00949 µM, first compound 3.16 µM) of the same compound?
A: 50.2%

Q: And the viability, T/C (second compound 0.00949 µM, first compound 10 µM)?
A: 42.1%

Q: What about the viability, T/C (second compound 0.03 µM, first compound 0.0316 µM) of the same compound?
A: 83.2%

Q: And the viability, T/C (second compound 0.03 µM, first compound 0.1 µM)?
A: 73.5%

Q: And the viability, T/C (second compound 0.03 µM, first compound 0.316 µM)?
A: 59.2%

Q: And the viability, T/C (second compound 0.03 µM, first compound 1 µM)?
A: 49.4%

Q: And the viability, T/C (second compound 0.03 µM, first compound 3.16 µM)?
A: 40.7%

Q: And the viability, T/C (second compound 0.03 µM, first compound 10 µM)?
A: 36.5%

Q: What about the viability, T/C (second compound 0.0949 µM, first compound 0.0316 µM) of the same compound?
A: 72.6%

Q: And the viability, T/C (second compound 0.0949 µM, first compound 0.1 µM)?
A: 70.8%

Q: What about the viability, T/C (second compound 0.0949 µM, first compound 0.316 µM) of the same compound?
A: 58.3%

Q: And the viability, T/C (second compound 0.0949 µM, first compound 1 µM)?
A: 48.5%

Q: What about the viability, T/C (second compound 0.0949 µM, first compound 3.16 µM) of the same compound?
A: 46.4%

Q: What about the viability, T/C (second compound 0.0949 µM, first compound 10 µM) of the same compound?
A: 33.8%

Q: And the viability, T/C (second compound 0.3 µM, first compound 0.0316 µM)?
A: 57.1%

Q: And the viability, T/C (second compound 0.3 µM, first compound 0.1 µM)?
A: 67.9%

Q: And the viability, T/C (second compound 0.3 µM, first compound 0.316 µM)?
A: 53.3%

Q: And the viability, T/C (second compound 0.3 µM, first compound 1 µM)?
A: 38.3%

Q: And the viability, T/C (second compound 0.3 µM, first compound 3.16 µM)?
A: 37.5%

Q: What about the viability, T/C (second compound 0.3 µM, first compound 10 µM) of the same compound?
A: 31.2%
